The target of this test is Metabotropic glutamate receptor 4 (Homo sapiens, UniProt Q14833). Nature of the test: In Vitro Testing of mGluR4 Potency. The protocol:
The in vitro activity of the compounds according to the invention may be investigated as follows:[0111]The HEK293 cell overexpressing the human metabotropic Glutamate 4 receptor are thawed at 37 C. and immediately diluted with cell culture medium. After centrifugation, the cell pellet is re-suspended in medium and then distributed from a stirred spinner flask into the wells of the assay plate. The plates are incubated for one hour at room temperature before they are incubated for 24 hours at 37 C./5% CO2. After washing the cells in the plate three times with 80 uL HBSS/HEPES buffer (10 uL buffer remained in the wells after washing), 5 uL per well of compounds diluted in HBSS/HEPES buffer containing 0.2% BSA (final concentration: 0.1%) and 1 mM IBMX (final concentration: 0.5 mM) are added to the wells of the assay plate. Thereafter 5 uL per well of L-Glutamic acid (final concentration: 10 uM), forskolin (final concentration: 1 uM) and 1 mM IBMX (final concentration: 0.5 mM) dissolved in HBSS/HEPES buffer containing 0.2% BSA (final concentration: 0.1%) are added to the assay plate (final DMSO concentration: 1%). […] The emission at 615 nm and 665 nm (Excitation wavelength: 320 nm) are measured on the EnVision reader (Perkin Elmer). The ratio between the emission at 665 nm and 615 is calculated by the reader. […]

Metabotropic glutamate receptor 4, sequence (Q14833 whole entry): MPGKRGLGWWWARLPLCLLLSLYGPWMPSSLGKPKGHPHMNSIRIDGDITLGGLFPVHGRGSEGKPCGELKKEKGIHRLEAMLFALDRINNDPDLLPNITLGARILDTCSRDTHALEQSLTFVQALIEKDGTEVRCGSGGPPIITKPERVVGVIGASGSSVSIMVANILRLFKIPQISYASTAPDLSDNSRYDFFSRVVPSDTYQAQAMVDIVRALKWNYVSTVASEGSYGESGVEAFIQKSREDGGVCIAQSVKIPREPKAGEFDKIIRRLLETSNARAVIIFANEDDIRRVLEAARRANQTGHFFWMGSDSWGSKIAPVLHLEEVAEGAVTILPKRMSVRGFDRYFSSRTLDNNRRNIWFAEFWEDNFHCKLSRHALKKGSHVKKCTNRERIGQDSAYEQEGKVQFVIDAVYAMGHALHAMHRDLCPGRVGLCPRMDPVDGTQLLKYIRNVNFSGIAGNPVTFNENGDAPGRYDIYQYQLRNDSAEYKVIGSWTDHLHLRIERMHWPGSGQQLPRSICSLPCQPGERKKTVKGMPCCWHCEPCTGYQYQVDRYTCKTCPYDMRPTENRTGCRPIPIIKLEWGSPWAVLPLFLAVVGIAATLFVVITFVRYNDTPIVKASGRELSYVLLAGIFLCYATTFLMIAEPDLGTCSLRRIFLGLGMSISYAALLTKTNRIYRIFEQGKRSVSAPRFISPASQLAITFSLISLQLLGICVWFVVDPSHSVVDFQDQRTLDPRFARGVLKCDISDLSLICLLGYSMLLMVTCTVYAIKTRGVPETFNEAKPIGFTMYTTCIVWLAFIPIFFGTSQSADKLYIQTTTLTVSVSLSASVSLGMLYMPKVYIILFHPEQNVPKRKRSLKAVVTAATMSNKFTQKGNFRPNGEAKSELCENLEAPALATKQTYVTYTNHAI

`Cc1cnc(C(=O)N[C@H](c2nc3cc(F)c(F)cc3n2C)C2CC2)cn1` [US20240182453, Example 66]: the IC50 was determined as 0.023 µM.
